As usually defined, the IC50 is the concentration that gives 50% inhibition.

The values that follow come from patent publication US20250129028A1, “COMPOUNDS AND METHODS FOR YAP/TEAD MODULATION AND INDICATIONS THEREFOR” (Opna Bio SA, priority 2022, published 2025).

This assay deals with TEAD-dependent transcription. Put plainly: TEAD-dependent transcription cell-based reporter assay (MSTO-211H+12XGTIIC luciferase). The arrangement: species or system human. The note with it: Homo sapiens; MSTO-211H+12XGTIIC cell line, luciferase signal normalized to cell viability, 24 hours compound incubation; read-out: MSTO-211H GMean IC50 (uM) Cell Assay Reporter Cell Variant: TEAD. The method in brief:
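MSTO-211H mesothelioma cells stably carrying a 12xGTIIC TEAD-response-element luciferase reporter, treated with serial compound dilutions for 24 h at 37 °C. Luminescence normalized to CellTiter-Fluor viability signal; % inhibition versus DMSO and 20 μM K-975 controls, IC50 by nonlinear regression.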
For the compound `CC(NS(C)(=O)=O)C(=O)N1CCc2ccc(Oc3ccc(C(F)(F)F)cc3)cc2C1` (centres unmarked) [P-0135, N-(1-oxo-1-(7-(4-(trifluoromethyl)phen-oxy)-3,4-dihydroisoquin-olin-2(1H)-yl)propan-2-yl)methanesulfonamide], the IC50 fell in the range of 0.001 to 10 µM. Regarding `O=C(NC1(C(=O)N2CCc3ccc(Oc4ccc(C(F)(F)F)cc4)cc3C2)CC1)C(F)(F)F` [P-0136, 2,2,2-trifluoro-N-(1-(7-(4-(trifluoromethyl)phen-oxy)-1,2,3,4-tetrahydro-isoquinoline-2-carbonyl)-cyclopropyl)acetamide], the IC50 was in the range of 0.001 to 10 µM. On to `Nc1nc(CC(=O)N2CCc3ccc(Oc4ccc(C(F)(F)F)cc4)cc3C2)cs1` [P-0137, 2-(2-aminothiazol-4-yl)-1-(7-(4-(trifluoromethyl)-phenoxy)-3,4-dihydroiso-quinolin-2(1H)-yl)ethan-1-one], for which the IC50 fell in the range of 0.001 to 10 µM. `CN1C(=O)SC(CC(=O)N2CCc3ccc(Oc4ccc(C(F)(F)F)c(F)c4)cc3C2)C1=O` (centres unmarked) [P-0138, 5-(2-(7-(3-fluoro-4-(trifluoromethyl)phen-oxy)-3,4-dihydroisoquin-olin-2(1H)-yl)-2-oxoeth-yl)-3-methylthiazolidine-2,4-dione]: the IC50 lay in the range of 0.001 to 10 µM. As to `O=C(Cc1c[nH]c(=O)[nH]c1=O)N1CCc2ccc(Oc3ccc(C(F)(F)F)c(F)c3)cc2C1` [P-0139, 5-(2-(7-(3-fluoro-4-(trifluoromethyl)phen-oxy)-3,4-dihydroisoquin-olin-2(1H)-yl)-2-oxoeth-yl)pyrimidine-2,4(1H, 3H)-dione], the half-inhibitory concentration (IC50) lay in the range of 0.001 to 10 µM. The result for `O=C1N[C@@H](CC(=O)N2CCc3ccc(Oc4ccc(C(F)(F)F)c(F)c4)cc3C2)CO1` [P-0140, (S)-4-(2-(7-(3-fluoro-4-(trifluoromethyl)phen-oxy)-3,4-dihydroisoquin-olin-2(1H)-yl)-2-oxoeth-yl)oxazolidin-2-one] reads 0.001 to 10 µM.

On to `O=C(CCS(=O)(=O)C(F)(F)F)N1CCc2ccc(Oc3ccc(C(F)(F)F)c(F)c3)cc2C1` [P-0141, 1-(7-(3-fluoro-4-(trifluoromethyl)phen-oxy)-3,4-dihydroiso-quinolin-2(1H)-yl)-3-((trifluoromethyl)sulfon-yl)propan-1-one], for which the half-inhibitory concentration (IC50) was in the range of 0.001 to 10 µM. Take `O=C1NCCC1CC(=O)N1CCc2ccc(Oc3ccc(C(F)(F)F)c(F)c3)cc2C1` (centres unmarked) [P-0142, 3-(2-(7-(3-fluoro-4-(trifluoromethyl)phen-oxy)-3,4-dihydroisoquin-olin-2(1H)-yl)-2-oxoeth-yl)pyrrolidin-2-one]: the 50% inhibitory concentration (IC50) was 0.001 to 10 µM. On to `O=C(C1CCS(=O)(=O)CC1)N1CCc2ccc(Oc3ccc(C(F)(F)F)c(F)c3)cc2C1` [P-0143, (1,1-dioxidotetrahydro-2H-thiopyran-4-yl)(7-(3-fluoro-4-(trifluorometh-yl)phenoxy)-3,4-dihydro-isoquinolin-2(1H)-yl)-methanone], for which the IC50 is 0.001 to 10 µM.

Regarding `O=C(C1CNC1)N1CCc2ccc(Oc3ccc(C(F)(F)F)c(F)c3)cc2C1` [P-0144, azetidin-3-yl(7-(3-fluoro-4-(trifluoromethyl)phen-oxy)-3,4-dihydroisoquin-olin-2(1H)-yl)methanone], the IC50 was 0.001 to 10 µM.

With `O=C(C1CCNC1)N1CCc2ccc(Oc3ccc(C(F)(F)F)c(F)c3)cc2C1` (centres unmarked) [P-0145, (7-(3-fluoro-4-(trifluoro-methyl)phenoxy)-3,4-dihydroisoquinolin-2(1H)-yl)(pyrrolidin-3-yl)methanone], the half-maximal inhibitory concentration (IC50) is 0.001 to 10 µM.

Turning to `O=C(C1CCCNC1)N1CCc2ccc(Oc3ccc(C(F)(F)F)c(F)c3)cc2C1` (centres unmarked) [P-0146, (7-(3-fluoro-4-(trifluoro-methyl)phenoxy)-3,4-dihydroisoquinolin-2(1H)-yl)(piperidin-3-yl)methanone], the IC50 fell in the range of 0.001 to 10 µM.

In the case of `O=C(C1CCNCC1)N1CCc2ccc(Oc3ccc(C(F)(F)F)c(F)c3)cc2C1` [P-0147, (7-(3-fluoro-4-(trifluoro-methyl)phenoxy)-3,4-dihydroisoquinolin-2(1H)-yl)(piperidin-4-yl)-methanone], the half-maximal inhibitory concentration (IC50) was 0.001 to 10 µM. Take `O=C(Cc1nnn[nH]1)N1CCc2ccc(Oc3ccc(C(F)(F)F)c(F)c3)cc2C1` [P-0148, 1-(7-(3-fluoro-4-(trifluoromethyl)phen-oxy)-3,4-dihydroisoquin-olin-2(1H)-yl)-2-(1H-tetrazol-5-yl)ethan-1-one]: the 50% inhibitory concentration (IC50) lay within 0.001 to 10 µM. In the case of `O=C(Cc1ccn[nH]1)N1CCc2ccc(Oc3ccc(C(F)(F)F)c(F)c3)cc2C1` [P-0149, 1-(7-(3-fluoro-4-(trifluoromethyl)phen-oxy)-3,4-dihydroiso-quinolin-2(1H)-yl)-2-(1H-pyrazol-5-yl)-ethan-1-one], the IC50 was 0.001 to 10 µM. In the case of `O=C(Cc1cnc[nH]1)N1CCc2ccc(Oc3ccc(C(F)(F)F)c(F)c3)cc2C1` [P-0150, 1-(7-(3-fluoro-4-(trifluoromethyl)phen-oxy)-3,4-dihydroisoquin-olin-2(1H)-yl)-2-(1H-imidazol-5-yl)ethan-1-one] it was 0.001 to 10 µM.

In the case of `O=C(CCc1cnc[nH]1)N1CCc2ccc(Oc3ccc(C(F)(F)F)c(F)c3)cc2C1` [P-0151, 1-(7-(3-fluoro-4-(trifluoromethyl)phen-oxy)-3,4-dihydroisoquin-olin-2(1H)-yl)-3-(1H-imidazol-5-yl)propan-1-one], the IC50 lay in the range of 0.001 to 10 µM. For `O=C(Cc1ncc[nH]1)N1CCc2ccc(Oc3ccc(C(F)(F)F)c(F)c3)cc2C1` [P-0152, 1-(7-(3-fluoro-4-(trifluoromethyl)phen-oxy)-3,4-dihydroisoquin-olin-2(1H)-yl)-2-(1H-imidazol-2-yl)ethan-1-one], the IC50 was in the range of 0.001 to 10 µM. The result for `O=C(CCn1cncn1)N1CCc2ccc(Oc3ccc(C(F)(F)F)c(F)c3)cc2C1` [P-0153, 1-(7-(3-fluoro-4-(trifluoromethyl)phen-oxy)-3,4-dihydroisoquin-olin-2(1H)-yl)-3-(1H-1,2,4-triazol-1-yl)propan-1-one] reads 0.001 to 10 µM; that for `C=CC(=O)Nc1nc(CC(=O)N2CCc3ccc(Oc4ccc(C(F)(F)F)c(F)c4)cc3C2)cs1` [P-0154, N-(4-(2-(7-(3-fluoro-4-(trifluoromethyl)phen-oxy)-3,4-dihydroisoquin-olin-2(1H)-yl)-2-oxoeth-yl)thiazol-2-yl)acrylamide], 0.001 to 10 µM. Turning to `Nc1nc(CC(=O)N2CCc3ccc(Oc4ccc(C(F)(F)F)c(F)c4)cc3C2)cs1` [P-0155, 2-(2-aminothiazol-4-yl)-1-(7-(3-fluoro-4-(trifluoromethyl)phen-oxy)-3,4-dihydroisoquin-olin-2(1H)-yl)ethan-1-one], the half-maximal inhibitory concentration (IC50) was 0.001 to 10 µM.

For `CN(C)C(N1CCc2ccc(Oc3ccc(C(F)(F)F)cc3)cc2C1)=[N+](C)C` [P-0156, N-((dimethylamino)(7-(4-(trifluoromethyl)phen-oxy)-3,4-dihydroisoquin-olin-2(1H)-yl)methylene)-N-methylmethanaminium], the IC50 was in the range of 0.001 to 10 µM. For the compound `C=CS(=O)(=O)N1CC(C(=O)N2CCc3ccc(Oc4ccc(C(F)(F)F)c(F)c4)cc3C2)C1` [P-0157, (7-(3-fluoro-4-(trifluoromethyl)phenoxy)-3,4-dihydroisoquinolin-2(1H)-yl)(1-(vinylsulfonyl)azetidin-3-yl)methanone], the IC50 was in the range of 0.001 to 10 µM. In the case of `C=CS(=O)(=O)N1CCC(C(=O)N2CCc3ccc(Oc4ccc(C(F)(F)F)c(F)c4)cc3C2)C1` (centres unmarked) [P-0158, (7-(3-fluoro-4-(trifluoro-methyl)phenoxy)-3,4-dihydroisoquinolin-2(1H)-yl)(1-(vinylsul-fonyl)pyrrolidin-3-yl)-methanone], the IC50 is 0.001 to 10 µM.

For `C=CS(=O)(=O)N1CCC(C(=O)N2CCc3ccc(Oc4ccc(C(F)(F)F)c(F)c4)cc3C2)CC1` [P-0159], the IC50 was in the range of 0.001 to 10 µM. Turning to `O=C(Cc1n[nH]c(=O)[nH]1)N1CCc2ccc(Oc3ccc(C(F)(F)F)c(F)c3)cc2C1` [P-0160, 5-(2-(7-(3-fluoro-4-(trifluoromethyl)phen-oxy)-3,4-dihydroisoquin-olin-2(1H)-yl)-2-oxoeth-yl)-2,4-dihydro-3H-1,2,4-triazol-3-one], the concentration for half-maximal inhibition (IC50) is 0.001 to 10 µM. On to `C=CC(=O)Nc1ncc(CC(=O)N2CCc3ccc(Oc4ccc(C(F)(F)F)c(F)c4)cc3C2)s1` [P-0163, N-(5-(2-(7-(3-fluoro-4-(trifluoromethyl)phen-oxy)-3,4-dihydroisoquin-olin-2(1H)-yl)-2-oxoeth-yl)thiazol-2-yl)acrylamide], for which the half-inhibitory concentration (IC50) fell in the range of 0.001 to 10 µM. For the compound `O=C(Cc1c[nH]cn1)N1CCc2ccc(Oc3ccc(C(F)(F)F)cc3)cc2C1` [P-0164, 2-(1H-imidazol-4-yl)-1-(7-(4-(trifluoromethyl)-phenoxy)-3,4-dihydroiso-quinolin-2(1H)-yl)ethan-1-one], the IC50 lay in the range of 0.001 to 10 µM.

Regarding `O=C(Cc1ncc[nH]1)N1CCc2ccc(Oc3ccc(C(F)(F)F)cc3)cc2C1` [P-0165, 2-(1H-imidazol-2-yl)-1-(7-(4-(trifluoromethyl)-phenoxy)-3,4-dihydroiso-quinolin-2(1H)-yl)ethan-1-one], the half-inhibitory concentration (IC50) lay within 0.001 to 10 µM.

For `O=C=CCC(=O)N1CCc2ccc(Oc3ccc(C(F)(F)F)cc3)cc2C1` [P-0166, 4-(7-(4-(trifluoromethyl)-phenoxy)-3,4-dihydroiso-quinolin-2(1H)-yl)but-1-ene-1,4-dione], the IC50 lay within 0.001 to 10 µM. The result for `CC(=O)N1CC(CC2c3cc(Oc4ccc(C(F)(F)F)cc4)ccc3CCN2C(=O)CCS(C)(=O)=O)C1` (centres unmarked) [P-0200, 1-(1-((1-acetylazetidin-3-yl)methyl)-7-(4-(trifluoromethyl)phen-oxy)-3,4-dihydroisoquin-olin-2(1H)-yl)-3-(methyl-sulfonyl)propan-1-one] reads 0.001 to 10 µM. As to `CS(=O)(=O)CCC(=O)N1CCc2ccc(Oc3ccc(C(F)(F)F)cc3)cc2C1CC1CN(c2ccccn2)C1` (centres unmarked) [P-0201, 3-(methylsulfonyl)-1-(1-((1-(pyridin-2-yl)azeti-din-3-yl)methyl)-7-(4-(trifluoromethyl)phen-oxy)-3,4-dihydroisoquin-olin-2(1H)-yl)propan-1-one], the IC50 lay in the range of 0.001 to 10 µM.
